# Target: T1, MLK-7 (Homo sapiens, UniProt Q9NYL2)
# T1 construct: GST; His tag; made in house; host or cells: Sf9 insect cells (baculovirus, pVL1392)
# Experiment: In vitro assay of purified MLK-7 kinase activity (33P transfer from ATP to myelin basic protein)
# Type: biochemical
# Conditions: recombinant GST-tagged MLK-7 at 1 nm, 30 uM ATP, 5 uM MBP substrate, 2 hours room temperature; read-out: MLK7 IC50
# Method in brief: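 GST/His-tagged MLK-7 from Sf9 (baculovirus), 1 nM, with 5 uM MBP, 30 uM ATP plus 33P, 5 mM MgCl2, 2 mM DTT, 4% DMSO in 44 mM HEPES pH 7.4; 2 h at room temperature, stopped with phosphoric acid. Filter-bound 33P counted; IC50 for reduced phosphate transfer, Ki via Cheng-Prusoff.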
row,Compound,IC50
1,"2-[4-(2-Pyridin-2-yl-5,6-dihydro-4H-pyrrolo[1,2-b]pyrazol-3-yl)quinolin-7-yl]phenyl}benzamide Trifluoroacetic Acid [Example 29]",≤ 10000 nM
2,"NC(=O)COc1ccc(-c2ccc3c(-c4c(-c5ccccn5)nn5c4CCC5)ccnc3c2)cc1 [Example 117, 2-{4-[4-(2-Pyridin-2-yl-5,6-dihydro-4H-pyrrolo[1,2-b]pyrazol-3-yl)quinolin-7-yl]phenoxy}acetamide Trifluoroacetic Acid]",≤ 100 nM
3,"O=C(O)COc1ccc(-c2ccc3c(-c4c(-c5ccccn5)nn5c4CCC5)ccnc3c2)cc1 [Example 46, {4-[4-(2-pyridin-2-yl-5,6-dihydro-4H-pyrrolo[1,2-b]pyrazol-3-yl)quinolin-7-yl]phenoxy}acetic Acid Trifluoroacetic Acid]",≤ 100 nM
4,"CS(=O)(=O)CCNC(=O)c1ccc(-c2ccc3c(-c4c(-c5ccccn5)nn5c4CCC5)ccnc3c2)cc1 [Example 139, N-(2-Methanesulfonyl-ethyl)-4-[4-(2-pyridin-2-yl-5,6-dihydro-4H-pyrrolo[1,2-b]pyrazol-3-yl)-quinolin-7-yl]-benzamide]",≤ 100 nM
5,"c1ccc(-c2nn3c(c2-c2ccnc4cc(-c5cc[nH]c5)ccc24)CCC3)nc1 [Example 71, 4-(2-pyridin-2-yl-5,6-dihydro-4H-pyrrolo[1,2-b]pyrazol-3-yl)-7-(1H-pyrrol-3-yl)quinoline Ditrifluoroacetic Acid]",≤ 100 nM
6,"Clc1ccc(-c2ccc3c(-c4c(-c5ccccn5)nn5c4CCC5)ccnc3c2)cc1Cl [Example 55, 7-(3,4-Dichlorophenyl)-4-(2-pyridin-2-yl-5,6-dihydro-4H-pyrrolo[1,2-b]pyrazol-3-yl)-quinoline]",≤ 1000 nM
7,"CS(=O)(=O)Nc1ccc(-c2ccc3c(-c4c(-c5ccccn5)nn5c4CCC5)ccnc3c2)cc1 [Example 16, N-{4-[4-(2-Pyridin-2-yl-5,6-dihydro-4H-pyrrolo[1,2-b]pyrazol-3-yl)quinolin-7-yl]phenyl}methanesulfonamide Trifluoroacetic Acid]",≤ 100 nM
8,O=S1(=O)Cc2ccc(-c3ccc4c(-c5c(-c6ccccn6)nn6c5CCC6)ccnc4c3)cc2C1 [Example 81],≤ 100 nM
9,"NC(=O)c1ccc(-c2ccc3c(-c4c(-c5ccccn5)nn5c4CCC5)ccnc3c2)cc1 [Example 141, 4-[4-(2-Pyridin-2-yl-5,6-dihydro-4H-pyrrolo[1,2-b]pyrazol-3-yl)-quinolin-7-yl]-benzamide]",≤ 100 nM
10,"O=C(O)c1cc(C(=O)O)cc(-c2ccc3c(-c4c(-c5ccccn5)nn5c4CCC5)ccnc3c2)c1 [Example 79, 5-[4-(2-Pyridin-2-yl-5,6-dihydro-4H-pyrrolo[1,2-b]pyrazol-3-yl)quinolin-7-yl]isophthalic Acid Trifluoroacetic Acid]",≤ 10000 nM
11,"CN(C)/C=N/C(=O)c1ccc(-c2ccc3c(-c4c(-c5ccccn5)nn5c4CCC5)ccnc3c2)cc1 [Example 140, N-Dimethylaminomethylene-4-[4-(2-pyridin-2-yl-5,6-dihydro-4H-pyrrolo[1,2-b]pyrazol-3-yl)-quinolin-7-yl]-benzamide]",≤ 100 nM
12,"CN(C)C(=O)c1ccc(-c2ccc3c(-c4c(-c5ccccn5)nn5c4CCC5)ccnc3c2)cc1 [Example 136, N,N-Dimethyl-4-[4-(2-pyridin-2-yl-5,6-dihydro-4H-pyrrolo[1,2-b]pyrazol-3-yl)-quinolin-7-yl]-benzamide]",≤ 100 nM
13,"O=S1(=O)CCN(c2ccc3c(-c4c(-c5ccccn5)nn5c4CCC5)ccnc3c2)CC1 [Example 104, 7-(1,1-Dioxo-1λ^6-thiomorph-olin-4-yl)-4-(2-pyridin-2-yl-5,6-dihydro-4H-pyrrolo[1,2-b]pyrazol-3-yl)-quinoline]",≤ 10000 nM
14,"CN(C)CCOc1ccc(-c2ccc3c(-c4c(-c5ccccn5)nn5c4CCC5)ccnc3c2)cc1 [Example 108, Dimethyl-(2-{4-[4-(2-Pyridin-2-yl-5,6-dihydro-4H-pyrrolo[1,2-b]pyrazol-3-yl)quinolin-7-yl]phenoxy}ethyl)amine Ditrifluoroacetic Acid]",≤ 100 nM
15,Nc1cccc(-c2ccc3c(-c4c(-c5ccccn5)nn5c4CCC5)ccnc3c2)c1 [Example 9],≤ 100 nM
16,"c1ccc(-c2nn3c(c2-c2ccnc4cc(-c5ccc(OCCCN6CCOCC6)cc5)ccc24)CCC3)nc1 [Example 114, 7-[4-(3-Morpholin-4-yl-propoxy)phenyl]-4-(2-Pyridin-2-yl-5,6-dihydro-4H-pyrrolo[1,2-b]pyrazol-3-yl)quinoline Ditrifluoroacetic Acid]",≤ 100 nM
17,"c1ccc(-c2nn3c(c2-c2ccnc4cc(-c5ccncc5)ccc24)CCC3)nc1 [Example 34, 7-Pyridin-4-yl-4-(2-Pyridin-2-yl-5,6-dihydro-4H-pyrrolo[1,2-b]pyrazol-3-yl)quinoline Ditrifluoroacetic Acid]",≤ 100 nM

row,Compound,IC50
1,"CCOC(=O)CCNC(=O)c1ccc(-c2ccc3c(-c4c(-c5ccccn5)nn5c4CCC5)ccnc3c2)cc1 [Example 128, 3-{4-[4-(2-Pyridin-2-yl-5,6-dihydro-4H-pyrrolo[1,2-b]pyrazol-3-yl)-quinolin-7-yl]-benzoylamino}-propionic Acid Ethyl Ester]",≤ 100 nM
2,"7-(3,5-Dichlorophenyl)-4-(2-Pyridin-2-yl-5,6-dihydro-4H-pyrrolo[1,2-b]pyrazol-3-yl)quinoline Trifluoroacetic Acid [Example 31]",≤ 1000 nM
3,"c1ccc(-c2nn3c(c2-c2ccnc4cc(-n5ccnn5)ccc24)CCC3)nc1 [Example 101, 4-(2-pyridin-2-yl-5,6-dihydro-4H-pyrrolo[1,2-b]pyrazol-3-yl-)-7-[1,2,3]triazol-1-yl-quinoline ditrifluoroacetic Acid]",≤ 1000 nM
4,"FC(F)(F)c1cc(-c2ccc3c(-c4c(-c5ccccn5)nn5c4CCC5)ccnc3c2)cc(C(F)(F)F)c1 [Example 42, 7-(3,5-Bis-trifluromethylphenyl)-4-(2-pyridin-2-yl-5,6-dihydro-4H-pyrrolo[1,2-b]pyrazol-3-yl)quinoline Trifluoroacetic Acid]",≤ 10000 nM
5,"Fc1ccc(-c2ccc3c(-c4c(-c5ccccn5)nn5c4CCC5)ccnc3c2)nc1 [Example 83, 7-(5-Fluoropyridin-2-yl)-4-(2-Pyridin-2-yl-5,6-dihydro-4H-pyrrolo[1,2-b]pyrazol-3-yl)quinoline Ditrifluoroacetic Acid]",≤ 10000 nM
6,"Cc1cccc(-c2nn3c(c2-c2ccnc4cc(-c5cccs5)ccc24)CCC3)n1 [Example 62, 4-[2-(6-Methyl-pyridin-2-yl)-5,6-dihydro-4H-pyrrolo[1,2-b]pyrazol-3-yl]-7-thiophen-2-yl-quinoline Trifluoroacetic Acid]",≤ 100 nM
7,"c1ccc(-c2nn3c(c2-c2ccnc4cc(-c5ccco5)ccc24)CCC3)nc1 [Example 65, 7-Furan-2-yl-4-(2-Pyridin-2-yl-5,6-dihydro-4H-pyrrolo[1,2-b]pyrazol-3-yl)quinoline Trifluoroacetic Acid]",≤ 100 nM
8,"c1ccc(-c2nn3c(c2-c2ccnc4cc(-c5ccc(OCCN6CCOCC6)cc5)ccc24)CCC3)nc1 [Example 109, 7-[4-(2-Morpholin-4-yl-ethoxy)phenyl]-4-(2-Pyridin-2-yl-5,6-dihydro-4H-pyrrolo[1,2-b]pyrazol-3-yl)quinoline Ditrifluoroacetic Acid]",≤ 100 nM
9,"c1ccc(-c2nn3c(c2-c2ccnc4cc(-c5ccsc5)ccc24)CCC3)nc1 [Example 50, 4-(2-pyridin-2-yl-5,6-dihydro-4H-pyrrolo[1,2-b]pyrazol-3-yl)-7-thiophen-3-yl-quinoline Trifluoroacetic Acid]",≤ 100 nM
10,"Nc1ccc(-c2ccc3c(-c4c(-c5ccccn5)nn5c4CCC5)ccnc3c2)cc1F [Example 78, 2-Fluoro-4-[4-(2-pyridin-2-yl-5,6-dihydro-4H-pyrrolo[1,2-b]pyrazol-3-yl)quinolin-7-yl]phenylamine Ditrifluoroacetic Acid]",≤ 100 nM
11,"c1ccc(-c2nn3c(c2-c2ccnc4cc(C5CCCCC5)ccc24)CCC3)nc1 [Example 72, 7-Cyclohexyl-4-(2-pyridin-2-yl-5,6-dihydro-4H-pyrrolo[1,2-b]pyrazol-3-yl)quinoline Trifluoroacetic Acid]",≤ 10000 nM
12,"O=C(O)c1ccccc1-c1ccc2c(-c3c(-c4ccccn4)nn4c3CCC4)ccnc2c1 [Example 44, 2-[4-(2-pyridin-2-yl-5,6-dihydro-4H-pyrrolo[1,2-b]pyrazol-3-yl)quinolin-7-yl]benzoic Acid Trifluoroacetic Acid]",≤ 10000 nM
13,"Brc1ccc(-c2ccc3c(-c4c(-c5ccccn5)nn5c4CCC5)ccnc3c2)cc1 [Example 23, 7-(4-Bromophenyl)-4-(2-pyridin-2-yl-5,6-dihydro-4H-pyrrolo[1,2-b]pyrazol-3-yl)quinoline Trifluoroacetic Acid]",≤ 100 nM
14,"c1ccc(-c2nn3c(c2-c2ccnc4cc(-c5nccs5)ccc24)CCC3)nc1 [Example 66, 4-(2-Pyridin-2-yl-5,6-dihydro-4H-pyrrolo[1,2-b]pyrazol-3-yl)-7-thiazol-2-yl-quinoline Trifluoroacetic Acid]",≤ 100 nM
15,"O=C(c1ccc(-c2ccc3c(-c4c(-c5ccccn5)nn5c4CCC5)ccnc3c2)cc1)N1CCOCC1 [Example 124, Morpholin-4-yl-{4-[4-(2-pyridin-2-yl-5,6-dihydro-4H-pyrrolo[1,2-b]pyrazol-3-yl)-quinolin-7-yl]-phenyl}-methanone]",≤ 100 nM
16,"CC(C)(C)OC(=O)NCCNC(=O)c1ccc(-c2ccc3c(-c4c(-c5ccccn5)nn5c4CCC5)ccnc3c2)cc1 [Example 121, (2-{4-[4-(2-Pyridin-2-yl-5,6-dihydro-4H-pyrrolo[1,2-b]pyrazol-3-yl)-quinolin-7-yl]-benzoylamino}-ethyl)-carbamic Acid tert-Butyl Ester]",≤ 100 nM
17,"7-(4-Methyl-3-nitro-phenyl)-4-(2-pyridin-2-yl-5,6-dihydro-4H-pyrrolo[1,2-b]pyrazol-3-yl)-quinoline Trifluoroacetic Acid [Example 52]",≤ 100 nM
